A value given as a limit tells only on which side of the number the result lay.

The target in one assay is T1, Dipeptidase 1 (Sus scrofa) (UniProt P22412).
T1 sequence (whole entry): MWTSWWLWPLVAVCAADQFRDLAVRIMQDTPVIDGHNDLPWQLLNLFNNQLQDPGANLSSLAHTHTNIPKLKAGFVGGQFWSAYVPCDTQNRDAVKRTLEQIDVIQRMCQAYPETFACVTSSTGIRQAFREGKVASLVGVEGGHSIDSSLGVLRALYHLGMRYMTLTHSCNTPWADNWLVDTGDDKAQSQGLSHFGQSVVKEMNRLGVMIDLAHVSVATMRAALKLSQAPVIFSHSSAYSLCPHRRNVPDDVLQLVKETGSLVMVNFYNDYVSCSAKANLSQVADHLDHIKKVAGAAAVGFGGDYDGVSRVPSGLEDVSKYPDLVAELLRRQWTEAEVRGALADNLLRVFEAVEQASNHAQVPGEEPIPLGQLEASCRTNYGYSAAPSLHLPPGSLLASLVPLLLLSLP
The assay can be described thus: Relative hydrolysis to that of imipenem was determined by hog renal dehydropeptidase.
Conditions: not given
As for `C[C@@H](O)[C@H]1C(=O)N2C(C(=O)[O-])=C(S[C@@H]3CCO[C@@H]3C/N=C\N)[C@H](C)[C@H]12.[Na+]`, the Relative hydrolysis came out at 18.
Compound `C[C@H](N)C(=O)NC[C@H]1OCC[C@H]1SC1=C(C(=O)[O-])N2C(=O)[C@H]([C@@H](C)O)[C@H]2[C@H]1C.[Na+]` had a Relative hydrolysis of 12.
Still for that read-out and setting: the figure for `CC(=O)NCC1CC(SC2=C(C(=O)[O-])N3C(=O)[C@H]([C@@H](C)O)[C@H]3[C@H]2C)CO1.[Na+]` (stereo not given in full) is 4.

The next assay relates to Escherichia coli. The experiment in a line: Antimicrobial activity against Escherichia coli (GC 1792). The assay is classed as functional.
Conditions: not given
As a reminder, the MIC is the lowest concentration that inhibits growth of the organism. For `C[C@@H](O)[C@H]1C(=O)N2C(C(=O)[O-])=C(S[C@@H]3CCO[C@@H]3C/N=C\N)[C@H](C)[C@H]12.[Na+]`, the MIC is at most 0.06 µg/mL.
Take `C[C@H](N)C(=O)NC[C@H]1OCC[C@H]1SC1=C(C(=O)[O-])N2C(=O)[C@H]([C@@H](C)O)[C@H]2[C@H]1C.[Na+]`: the MIC is at most 0.06 µg/mL.
In turn, `CC(=O)NCC1CC(SC2=C(C(=O)[O-])N3C(=O)[C@H]([C@@H](C)O)[C@H]3[C@H]2C)CO1.[Na+]` (stereo not given in full) yielded an MIC of 0.12 µg/mL.

A further assay relates to Pseudomonas aeruginosa. The experiment in a line: Antimicrobial activity against Pseudomonas aeruginosa (ATCC 27853). The assay is classed as functional.
Conditions: not given
In the case of `C[C@@H](O)[C@H]1C(=O)N2C(C(=O)[O-])=C(S[C@@H]3CCO[C@@H]3C/N=C\N)[C@H](C)[C@H]12.[Na+]`, the MIC is 16 µg/mL.
With `C[C@H](N)C(=O)NC[C@H]1OCC[C@H]1SC1=C(C(=O)[O-])N2C(=O)[C@H]([C@@H](C)O)[C@H]2[C@H]1C.[Na+]`, 32 µg/mL was the least that counted as inhibitory (MIC).
In turn, `CC(=O)NCC1CC(SC2=C(C(=O)[O-])N3C(=O)[C@H]([C@@H](C)O)[C@H]3[C@H]2C)CO1.[Na+]` (stereo not given in full) showed an MIC of 64 µg/mL.

Tested on in another assay: not listed separately
The experiment in a line: Antimicrobial activity against Enterococcus faecium (GC 1182).
Conditions: not given
The assay is classed as functional.
`C[C@@H](O)[C@H]1C(=O)N2C(C(=O)[O-])=C(S[C@@H]3CCO[C@@H]3C/N=C\N)[C@H](C)[C@H]12.[Na+]` came in with an MIC of over 128 µg/mL.
On to `C[C@H](N)C(=O)NC[C@H]1OCC[C@H]1SC1=C(C(=O)[O-])N2C(=O)[C@H]([C@@H](C)O)[C@H]2[C@H]1C.[Na+]`, for which the MIC was over 128 µg/mL.
On the same count and under the same terms, the result for `CC(=O)NCC1CC(SC2=C(C(=O)[O-])N3C(=O)[C@H]([C@@H](C)O)[C@H]3[C@H]2C)CO1.[Na+]` (stereo not given in full) reads over 128 µg/mL.

The test system of a further assay is Pseudomonas aeruginosa. The experiment in a line: Antimicrobial activity against Pseudomonas aeruginosa (GC 1544 OprD). It counts as functional.
Conditions: not given
The compound `C[C@@H](O)[C@H]1C(=O)N2C(C(=O)[O-])=C(S[C@@H]3CCO[C@@H]3C/N=C\N)[C@H](C)[C@H]12.[Na+]` returned an MIC of 32 µg/mL.
Still for that read-out and setting: the result for `C[C@H](N)C(=O)NC[C@H]1OCC[C@H]1SC1=C(C(=O)[O-])N2C(=O)[C@H]([C@@H](C)O)[C@H]2[C@H]1C.[Na+]` reads 64 µg/mL; that for `CC(=O)NCC1CC(SC2=C(C(=O)[O-])N3C(=O)[C@H]([C@@H](C)O)[C@H]3[C@H]2C)CO1.[Na+]` (stereo not given in full), 128 µg/mL.

Tested on in another assay: not listed separately
The experiment in a line: Antimicrobial activity against Citrobacter freundii (GC 2211). It counts as functional.
Conditions: not given
For the compound `C[C@@H](O)[C@H]1C(=O)N2C(C(=O)[O-])=C(S[C@@H]3CCO[C@@H]3C/N=C\N)[C@H](C)[C@H]12.[Na+]`, the MIC was 0.5 µg/mL.
The same measure, in the same setting: the figure for `C[C@H](N)C(=O)NC[C@H]1OCC[C@H]1SC1=C(C(=O)[O-])N2C(=O)[C@H]([C@@H](C)O)[C@H]2[C@H]1C.[Na+]` is 1 µg/mL; for `CC(=O)NCC1CC(SC2=C(C(=O)[O-])N3C(=O)[C@H]([C@@H](C)O)[C@H]3[C@H]2C)CO1.[Na+]` (stereo not given in full) it is 2 µg/mL.

Another assay relates to Escherichia coli. The experiment in a line: Antimicrobial activity against Escherichia coli (ATCC 25922).
Conditions: not given
It counts as functional.
Compound `C[C@@H](O)[C@H]1C(=O)N2C(C(=O)[O-])=C(S[C@@H]3CCO[C@@H]3C/N=C\N)[C@H](C)[C@H]12.[Na+]` yielded a minimum inhibitory concentration (MIC) of at most 0.06 µg/mL.
The same measure, in the same setting: the result for `C[C@H](N)C(=O)NC[C@H]1OCC[C@H]1SC1=C(C(=O)[O-])N2C(=O)[C@H]([C@@H](C)O)[C@H]2[C@H]1C.[Na+]` reads at most 0.06 µg/mL; that for `CC(=O)NCC1CC(SC2=C(C(=O)[O-])N3C(=O)[C@H]([C@@H](C)O)[C@H]3[C@H]2C)CO1.[Na+]` (stereo not given in full), at most 0.06 µg/mL.

A further assay concerns Acinetobacter calcoaceticus. The assay can be described thus: Antimicrobial activity against Acinetobacter calcoaceticus (GC 756). It counts as functional.
Conditions: not given
As for `C[C@@H](O)[C@H]1C(=O)N2C(C(=O)[O-])=C(S[C@@H]3CCO[C@@H]3C/N=C\N)[C@H](C)[C@H]12.[Na+]`, the MIC was 8 µg/mL.
Same read-out and setting: the figure for `C[C@H](N)C(=O)NC[C@H]1OCC[C@H]1SC1=C(C(=O)[O-])N2C(=O)[C@H]([C@@H](C)O)[C@H]2[C@H]1C.[Na+]` is 16 µg/mL; for `CC(=O)NCC1CC(SC2=C(C(=O)[O-])N3C(=O)[C@H]([C@@H](C)O)[C@H]3[C@H]2C)CO1.[Na+]` (stereo not given in full) it is 8 µg/mL.

Tested on in another assay: not listed separately
The assay can be described thus: Antimicrobial activity against Enterobacter cloacae (GC 2209). It counts as functional.
Conditions: not given
As to `C[C@@H](O)[C@H]1C(=O)N2C(C(=O)[O-])=C(S[C@@H]3CCO[C@@H]3C/N=C\N)[C@H](C)[C@H]12.[Na+]`, the MIC was at most 0.06 µg/mL.
Still for that read-out and setting: the result for `C[C@H](N)C(=O)NC[C@H]1OCC[C@H]1SC1=C(C(=O)[O-])N2C(=O)[C@H]([C@@H](C)O)[C@H]2[C@H]1C.[Na+]` reads 0.25 µg/mL.
Turning to `CC(=O)NCC1CC(SC2=C(C(=O)[O-])N3C(=O)[C@H]([C@@H](C)O)[C@H]3[C@H]2C)CO1.[Na+]` (stereo not given in full), the MIC is 0.5 µg/mL.

The test system of another assay is Escherichia coli. The assay can be described thus: Antimicrobial activity against Escherichia coli (GC 2205). The assay is classed as functional.
Conditions: not given
With `C[C@@H](O)[C@H]1C(=O)N2C(C(=O)[O-])=C(S[C@@H]3CCO[C@@H]3C/N=C\N)[C@H](C)[C@H]12.[Na+]`, it took 0.12 µg/mL to inhibit growth (MIC).
On the same count and under the same terms, the result for `C[C@H](N)C(=O)NC[C@H]1OCC[C@H]1SC1=C(C(=O)[O-])N2C(=O)[C@H]([C@@H](C)O)[C@H]2[C@H]1C.[Na+]` reads at most 0.06 µg/mL; that for `CC(=O)NCC1CC(SC2=C(C(=O)[O-])N3C(=O)[C@H]([C@@H](C)O)[C@H]3[C@H]2C)CO1.[Na+]` (stereo not given in full), at most 0.06 µg/mL.

Tested on in another assay: not listed separately
The experiment in a line: Antimicrobial activity against Xanthomonas maltophilia (GC 562). It counts as functional. The note with it: Stenotrophomonas maltophilia.
Take `C[C@@H](O)[C@H]1C(=O)N2C(C(=O)[O-])=C(S[C@@H]3CCO[C@@H]3C/N=C\N)[C@H](C)[C@H]12.[Na+]`: the MIC is over 128 µg/mL.
On the same count and under the same terms, the figure for `C[C@H](N)C(=O)NC[C@H]1OCC[C@H]1SC1=C(C(=O)[O-])N2C(=O)[C@H]([C@@H](C)O)[C@H]2[C@H]1C.[Na+]` is over 128 µg/mL.
Compound `CC(=O)NCC1CC(SC2=C(C(=O)[O-])N3C(=O)[C@H]([C@@H](C)O)[C@H]3[C@H]2C)CO1.[Na+]` (stereo not given in full) displayed a minimal inhibitory concentration (MIC) of over 128 µg/mL.

In another assay the test system is Staphylococcus aureus. The assay can be described thus: Antimicrobial activity against methicillin - resistant Staphylococcus aureus (GC 2220). It counts as functional.
Conditions: not given
`C[C@@H](O)[C@H]1C(=O)N2C(C(=O)[O-])=C(S[C@@H]3CCO[C@@H]3C/N=C\N)[C@H](C)[C@H]12.[Na+]` came in with an MIC of 4 µg/mL.
The same measure, in the same setting: the figure for `C[C@H](N)C(=O)NC[C@H]1OCC[C@H]1SC1=C(C(=O)[O-])N2C(=O)[C@H]([C@@H](C)O)[C@H]2[C@H]1C.[Na+]` is 8 µg/mL; for `CC(=O)NCC1CC(SC2=C(C(=O)[O-])N3C(=O)[C@H]([C@@H](C)O)[C@H]3[C@H]2C)CO1.[Na+]` (stereo not given in full) it is 16 µg/mL.

Tested on in the next assay: not listed separately
The assay can be described thus: Antimicrobial activity against Morganella morganii (GC 2213). The assay is classed as functional.
Conditions: not given
Consider `C[C@@H](O)[C@H]1C(=O)N2C(C(=O)[O-])=C(S[C@@H]3CCO[C@@H]3C/N=C\N)[C@H](C)[C@H]12.[Na+]`, for which the lowest concentration to inhibit growth (MIC) was 1 µg/mL.
Still for that read-out and setting: the figure for `C[C@H](N)C(=O)NC[C@H]1OCC[C@H]1SC1=C(C(=O)[O-])N2C(=O)[C@H]([C@@H](C)O)[C@H]2[C@H]1C.[Na+]` is 1 µg/mL; for `CC(=O)NCC1CC(SC2=C(C(=O)[O-])N3C(=O)[C@H]([C@@H](C)O)[C@H]3[C@H]2C)CO1.[Na+]` (stereo not given in full) it is 0.5 µg/mL.

Tested on in a further assay: not listed separately
The assay can be described thus: Antimicrobial activity against Enterococcus faecalis (GC 842). It counts as functional.
Conditions: not given
In turn, `C[C@@H](O)[C@H]1C(=O)N2C(C(=O)[O-])=C(S[C@@H]3CCO[C@@H]3C/N=C\N)[C@H](C)[C@H]12.[Na+]` returned an MIC of 2 µg/mL.
On the same count and under the same terms, the result for `C[C@H](N)C(=O)NC[C@H]1OCC[C@H]1SC1=C(C(=O)[O-])N2C(=O)[C@H]([C@@H](C)O)[C@H]2[C@H]1C.[Na+]` reads 4 µg/mL; that for `CC(=O)NCC1CC(SC2=C(C(=O)[O-])N3C(=O)[C@H]([C@@H](C)O)[C@H]3[C@H]2C)CO1.[Na+]` (stereo not given in full), 8 µg/mL.

The next assay has as its system Staphylococcus aureus. The experiment in a line: Antimicrobial activity against Staphylococcus aureus (ATCC 29213). The assay is classed as functional.
Conditions: not given
Consider `C[C@@H](O)[C@H]1C(=O)N2C(C(=O)[O-])=C(S[C@@H]3CCO[C@@H]3C/N=C\N)[C@H](C)[C@H]12.[Na+]`, for which the MIC was at most 0.06 µg/mL.
Same read-out and setting: the result for `C[C@H](N)C(=O)NC[C@H]1OCC[C@H]1SC1=C(C(=O)[O-])N2C(=O)[C@H]([C@@H](C)O)[C@H]2[C@H]1C.[Na+]` reads 0.12 µg/mL; that for `CC(=O)NCC1CC(SC2=C(C(=O)[O-])N3C(=O)[C@H]([C@@H](C)O)[C@H]3[C@H]2C)CO1.[Na+]` (stereo not given in full), 0.12 µg/mL.

Values taken from ChEMBL document CHEMBL1150515, “Synthesis and structure-activity relationships of novel THF 1-methylcarbapenems II” (1997).
